This note sets out measurements from patent US20100226922A1, “SPECIFIC PROTEASE INHIBITORS AND THEIR USE IN CANCER THERAPY” (priority 2006, published 2010).

Test [1] relates to EpCAM-negative NIH3T3 control cells. The experiment in a line: Proliferation of EpCAM-negative NIH3T3 control cells. Type of test: cell-based, murine. The following applies: treatment with DAPT. The protocol: (§1) We further investigated the significance of PS activity on EpCAM-mediated growth transformation of two cell types. Murine NIH3T3 transfectants (which were grown and transfected as described in Example 1) that ectopically express EpCAM, and FaDu carcinoma cells that naturally express EpCAM were treated with the DAPT over 4 days. […] Noteworthy, besides its capacity to rescue cells from DAPT-mediated growth inhibition, the expression of EpIC-YFP did even further increase proliferation of EpCAM-expressing FaDu carcinoma cells.

In test [2] the test system is NIH3T3 transfectants that ectopically express EpCAM. The experiment in a line: EpCAM-mediated growth transformation (cell numbers), NIH3T3 transfectants ectopically expressing EpCAM. Type of test: cell-based, murine. The procedure:
as §1

Another test has as its system FaDu carcinoma cells. The experiment in a line: Proliferation (cell numbers) of FaDu carcinoma cells. Type of test: cell-based, human. The procedure:
as §1, with “cells. Also, siRNA-mediated TACE reduction of proliferation of FaDu cells was tested. […] Modest effects may be explained by the comparatively low transfection efficiency of this cell line (FIG. 3A).” for “cells.”

Test [3] has as its system EpEX shedding in FaDu cells. Nature of the test: EpEX shedding by FaDu cells expressing endogenous EpCAM. The test is classed as cell-based, human. The following applies: treated with TAPI-2. The protocol:
The soluble ectodomain EpEX was detected in cell-free supernatants FaDu cells (Experiment was carried out as described for HEK293 cells).
(§2) Next, HEK293 cells were transiently transfected with EpCAM-YFP, treated with 40 μM TACE inhibitor TAPI-2 (Biomol, Germany) and EpIC formation monitored as described above for the inhibition of presenilin-2. […] Finally, the effect of TACE inhibition on the generation of the EpCAM ectodomain was assessed. HEK293-EpCAM cells were cultured two days in the presence or absence of TAPI-2 (40 μM) and cell-free conditioned supernatants were collected upon centrifugation (13,000 rpm, 10 min, 4° C.). Thereafter, immunoprecipitations were conducted with antibodies specific for EpEX as described above. […] In all cases, EpEX was devoid of the EpIC domain as it no longer reacted with the EpIC-specific antibody. Ectodomain shedding may thus be a basic requirement for the cleavage of EpIC, as is the case for certain other receptors (Medina and Dotti, 2003, Cell Signal 15: 829-841).

Test [4] relates to EpCAM-YFP cleavage in HEK293 cells. The experiment in a line: EpIC formation (EpCAM cleavage) by immunoblot in HEK293 cells transiently transfected with EpCAM-YFP. Type of test: cell-based, human. The following applies: for EpIC cleavage / release of EpIC-YFP from EpCAM-YFP: single cells incubated with recombinant EpEX, monitored over time.
Description: In the beginning of the study nothing was known about the molecular mechanisms underlying the signalling mechanisms of EpCAM. In order to test for potential EpCAM cleavage, full-length EpCAM was C-terminally fused to the yellow fluorescence protein to generate EpCAM-YFP. Similarly, a potential intracellular domain of EpCAM (EpIC), starting with serine^289, was fused to the YFP moiety to generate EpIC-YFP. For this purpose, EpCAM or EpIC cDNA sequences were cloned into peYFP-N1 (BD Biosciences, Heidelberg Germany). […] HEK293 cells are human embryonic kidney cells, which were cultured in standard DMEM containing 10% fetal calf serum and passaged three times per week. Transfection was carried out with MATra reagent (IBA, Göttingen, Germany) in six-well plates (5×10^5 cells/well) according to the manufacturer's protocol. One microgram of plasmid DNA was transfected per sample for a time period of 24 h. For immunoblot analysis, 1×10^6 cells were lysed in 100 μl lysis buffer (TBS/1% triton and protease inhibitors). Lysates were pre-cleared upon centrifugation (13.000 rpm, 4° C., 10 min), separated upon SDS-PAGE, and transferred onto PVDF membranes (Millipore, Bedford, US). The expression of both proteins was assessed upon immunobloting with EpIC- (A20 or 1144, which are α-EpIC antibodies; Santa Cruz Biotech, USA and Epitomics, USA) and YFP-specific antibodies in combination with horseradish peroxidase (HRP)-conjugated secondary antibodies and the ECL reagent (Amersham Biosciences).
The interaction of EpCAM with PS-2 and TACE indicates an involvement of these proteases in the proteolytic processing of EpCAM. To confirm this, HEK293 cells were transiently transfected with EpCAM-YFP expression plasmid. Briefly, 5×10^5 cells were plated in 6-well plates and transiently transfected 24 h later with 1 μg plasmid DNA using the MATra transfection reagent (IBA, Göttingen, Germany—1 μl reagent per 1 μg DNA). Transiently transfected HEK293 cells were treated with 60 nM of the γ-secretase inhibitor Compound E (Alexis Biochemicals, Germany) over a time period of two days. Proteins were separated by SDS-PAGE (30 mA/gel, 10% polyacrylamid gel), transferred onto PVDF membranes (Millipore, Bedford, US). Cleavage of EpIC was assessed with an EpIC-specific antibody (1144, Epitomics, USA) in a time kinetic. Treatment of transfected cells with compound E led to the reduced formation of EpIC along with the accumulation of intermediate cleavage products of EpCAM with a molecular weight of 33-37 kDa (FIG. 2C). These intermediates most likely represent EpCAM molecules lacking the ectodomain but which were not cleaved at the intracellular site. […] Thus, inhibition of presenilins has an impact on EpCAM signaling capacity.
as §2, with “Ectodomain shedding may thus be a basic requirement for the cleavage of EpIC, as is the case for certain other receptors (Medina and Dotti, 2003, Cell Signal 15: 829-841).” left out
In general terms: A western blot detects proteins with antibodies after separation by electrophoresis.

In test [5] the test system is EpCAM ectodomain (EpEX) shedding in HEK293-EpCAM cells. The experiment in a line: EpCAM ectodomain shedding, immunoprecipitation from conditioned supernatant of HEK293-EpCAM cells. Type of test: cell-based, human. The following applies: TAPI-2 40 μM, two days, versus vehicle diluent. The procedure: In a next step, we assessed the existence of a shed ectodomain of EpCAM. Immunoprecipitation was performed with conditioned cell-free supernatants of HEK293-EpCAM and HEK293-control transfectants using antibodies specific for the extracellular (EpEC), i.e. HO.3 (an α-EpEC antibody; kind gift from Dr. Horst Lindhofer, TrionPharma, Munich, Germany) and intracellular (EpIC) domain of EpCAM (see above) essentially as described above. For a positive control, immunoprecipitation was performed in parallel with whole cell lysate of HEK293-EpCAM cells.
as §2, with “Ectodomain shedding may thus be a basic requirement for the cleavage of EpIC, as is the case for certain other receptors (Medina and Dotti, 2003, Cell Signal 15: 829-841).” left out

In test [6] the test system is TCF/Lef-responsive promoters in HEK293 cells. Type of test: cell-based, human.
Test [7] addresses EpCAM (epithelial cell adhesion molecule), full-length (human) (UniProt P16422). Nature of the test: cell-based or functional assay.
The test system of test [8] is endogenous EpCAM in FaDu cells. Nature of the test: EpIC retention in the plasma membrane of isolated FaDu cells treated with EpEX. Type of test: cell-based, human. The protocol: In search for inducers of EpCAM signaling, we investigated the possibility that EpEX serves as a soluble ligand for EpCAM. EpCAM was described as a homophilic adhesion molecule, which can confer intra- and intercellular adhesion via two distinct, cystein-rich extracellular domains. […] HEK293 cells were plated as single cells, transfected with EpCAM-YFP expression vector, and incubated with recombinant EpEX. EpIC formation was then monitored over time by immunoblotting (see above). […] This observation was further corroborated in carcinoma cells with respect to the cleavage of endogenous EpCAM molecules. […] In the absence of EpEX in the culture medium, a mean of 74% of single cells retained EpIC in the plasma membrane, while only 39% of the cells did so following treatment with EpEX.

The target of test [9] is T1, EpCAM (epithelial cell adhesion molecule), full-length (human, UniProt P16422 24-314).
T1 sequence (looked up): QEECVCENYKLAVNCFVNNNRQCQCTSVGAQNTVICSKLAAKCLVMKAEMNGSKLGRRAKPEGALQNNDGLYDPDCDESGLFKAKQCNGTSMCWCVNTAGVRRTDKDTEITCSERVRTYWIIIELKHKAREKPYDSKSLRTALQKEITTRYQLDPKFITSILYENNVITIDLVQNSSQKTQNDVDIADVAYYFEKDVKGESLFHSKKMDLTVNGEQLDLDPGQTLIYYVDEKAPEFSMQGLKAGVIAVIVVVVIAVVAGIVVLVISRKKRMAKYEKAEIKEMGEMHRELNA
The experiment in a line: cell-based or functional assay.

Where [10] appears, read: DAPT over 4 days, data not shown.
[11] abbreviates: DAPT plus EpIC-YFP expression (rescue).

On to `C[C@H](NC(=O)Cc1cc(F)cc(F)c1)C(=O)N[C@H](C(=O)OC(C)(C)C)c1ccccc1` [DAPT, N—[N-(3,5-difluorophenacetyl)-L-alanyl]-(S)-phenyl-glycine t-butyl ester], for which the cell proliferation result in test [1] was “remained unaffected”. In addition, the “EpCAM-mediated growth transformation (cell numbers)” value (in test [2] (setting [10]); in the test on FaDu carcinoma cells (setting [10])) was “substantially inhibited” each time. For the same molecule, the “cell numbers under DAPT with expression of EpIC-YFP” value (in test [2] (setting [11]); in the test on FaDu carcinoma cells (setting [11])) was “restored cell numbers to the level of untreated cells” throughout.
For the molecule `CC(C)C[C@H](CC(=O)NO)C(=O)N[C@H](C(=O)N[C@@H](C)C(=O)NCCN)C(C)(C)C` [TAPI-2], in test [3], the EpEX shedding result is on record as “significant reduction of EpEX shedding”. In test [4] (40 μM TAPI-2), the EpIC cleavage result is on record as “substantial reduction of EpIC cleavage”, the c-Myc induction entry is given as “decrease in c-Myc induction” and the “formation of EpCAM intermediates” value is listed as “no effect whatsoever”. Moreover, the “ectodomain shedding in the cell culture supernatant” value in test [5] is given as “strong reduction of ectodomain shedding”.
In the case of `[Cl-].[Li+]` [lithium chloride], the “mean induction of TCF/Lef” value in [6] is 2.5 fold.
In test [7], “recombinant EpCAM extracellular domain EpEX (EpEXrec) (from UniProt P16422 24-265) (ligand)” showed a single FaDu cells retaining EpIC in the plasma membrane, following treatment with EpEX of 39% and a single FaDu cells retaining EpIC in the plasma membrane, in the absence of EpEX (control) of 74%.

B1: EpEXrec: recombinant EpCAM extracellular domain EpEX (protein)
chain: QEECVCENYKLAVNCFVNNNRQCQCTSVGAQNTVICSKLAAKCLVMKAEMNGSKLGRRAKPEGALQNNDGLYDPDCDESGLFKAKQCNGTSMCWCVNTAGVRRTDKDTEITCSERVRTYWIIIELKHKAREKPYDSKSLRTALQKEITTRYQLDPKFITSILYENNVITIDLVQNSSQKTQNDVDIADVAYYFEKDVKGESLFHSKKMDLTVNGEQLDLDPGQTLIYYVDEKAPEFSMQGLK
As for B1, in [8] (after treatment with EpEX, 74% in the absence of EpEX), the “single cells that retained EpIC in the plasma membrane (mean)” value came to 39%. The “EpIC immunoreactivity at the site of the plasma membrane” value in [8] (isolated FaDu cells treated with EpEX) is “significant loss”. Also, the “EpIC cleavage / release of EpIC-YFP from EpCAM-YFP” value in [4] is recorded as “time-dependent induction of EpIC cleavage”.

B2: heat-treated EpEX: heat-treated recombinant EpCAM ectodomain, used as inactive control (protein, UniProt P16422 24-265, looked up)
extracellular domain: QEECVCENYKLAVNCFVNNNRQCQCTSVGAQNTVICSKLAAKCLVMKAEMNGSKLGRRAKPEGALQNNDGLYDPDCDESGLFKAKQCNGTSMCWCVNTAGVRRTDKDTEITCSERVRTYWIIIELKHKAREKPYDSKSLRTALQKEITTRYQLDPKFITSILYENNVITIDLVQNSSQKTQNDVDIADVAYYFEKDVKGESLFHSKKMDLTVNGEQLDLDPGQTLIYYVDEKAPEFSMQGLK
modifications: extracellular domain heat-treated
For B2, the “EpIC cleavage / release of EpIC-YFP from EpCAM-YFP” value in test [4] was “did not result in a release of EpIC-YFP”.

B3: four and a half LIM domain protein FHL2 (other, human, UniProt Q14192 1-279, looked up)
chain: MTERFDCHHCNESLFGKKYILREESPYCVVCFETLFANTCEECGKPIGCDCKDLSYKDRHWHEACFHCSQCRNSLVDKPFAAKEDQLLCTDCYSNEYSSKCQECKKTIMPGTRKMEYKGSSWHETCFICHRCQQPIGTKSFIPKDNQNFCVPCYEKQHAMQCVQCKKPITTGGVTYREQPWHKECFVCTACRKQLSGQRFTARDDFAYCLNCFCDLYAKKCAGCTNPISGLGGTKYISFEERQWHNDCFNCKKCSLSLVGRGFLTERDDILCPDCGKDI
With B3, in [9], the “cell numbers at day five of treatment with EpCAM- or FHL2-specific siRNA against control siRNA” value stood at 2.5 fold lower.
